pIC50, pKi: −log10 of the molar value.
Experiments:
[1] = target: T1, cannabinoid CB1 receptor (CB1) (Mus musculus, UniProt P47746); assay: Antagonization of CB1-mediated hypothermia; format: in vivo; details: female NMRI mice; 1.25 mg/kg intraperitoneally; within 30 min
T1 construct: from tissue; host or cells: whole animal (female NMRI mice)
Description: The test is used to measure the potency of cannabinoid CB1 receptor (CB1) antagonists. What is measured is the extent to which the CB1 antagonists to be tested are capable of preventing or of antagonizing hypothermia induced by a CB1 agonist.
Female NMRI mice, 25-35 g in weight, are used. The mice are accustomed to the housing conditions for at least one week.
At time 0 min, the animals are treated orally, intravenously or intraperitoneally with the CB1 antagonist to be tested. 30 min later, the CB1 agonist CP55.940, 1.25 mg/kg, is administered to the mice intraperitoneally. This brings about a fall in the body temperature by 5-6° C. within 30 min. The body temperature is measured rectally for the first time 30 min before the test substance administration and then every 30 min after this administration, if appropriate immediately before a substance administration, over 4 hours.
The potency of the test substances is reported as the percentage decrease in the area under the temperature-time curve which is formed firstly by the average basal temperature, and secondly by the temperature-time curve, of the animals treated exclusively with the CB1 antagonist.

hCB1R [2] = target: T2, hCB1R (Homo sapiens, UniProt P21554); assay: Binding to the CB1 receptor ([3H]-SR141716A displacement); design: expressed in transfected cells; host or cells: CHO-K1; details: CHO-K1/cannabinoid CB1 protein; ligand [3H]-SR141716A 0.5 nM; Ki from IC50 by Cheng-Prusoff
Description: Test compounds: The compounds (3 μl, 10 mM, 100% DMSO), pipetted into 96-well PP microtiter plates, were diluted with 27 μl of 100% DMSO (dimethyl sulfoxide). Proceeding from this solution, further 3-fold dilution steps were undertaken by transferring 10 μl in each case to a new PP microtiter plate and adding a further 20 μl of 100% DMSO. In each case 6 μl of these solutions were transferred into new 96-well PP microtiter plates and made up with 144 μl of assay buffer. The end concentrations ranged from 10 μM to 0.005 μM.
Negative control: AM 251, dissolved in assay buffer with 1% DMSO, was added to the dilution series in the microtiter plates as a control. The end concentration was 1 μM.
Blank control: assay buffer with 1% DMSO was added to the dilution series of the microtiter plates as a blank control.
High control: ^3H binding without addition of the compound
Low control: ^3H binding in the presence of 1 μM AM 251
The values were calculated using the corrected raw data.
The values reported were obtained as average values of a double determination. The IC50 values were calculated from the measurements with the program Xlfit, formula 205. Ki values were obtained from the IC50 and Kd values utilizing the Cheng-Prusoff equation: […]
Literature: Cheng, Y.-C., and Prusoff, W. H. (1973) Biochem. Pharmacol 22, 3099-3108

hCB1R [3] = target: T2, hCB1R; assay: In vitro functional assay with recombinant cells (FLIPR), cannabinoid 1 receptor; format: cell-based; design: expressed in transfected cells; host or cells: HEK293; details: recombinant HEK293 cells expressing CB1 and G-protein Galpha16; intracellular Ca2+ change against reference agonist
Description: (§1) Function-testing assays were performed by means of the FLIPR technique (“Fluorometric Imaging Plate Reader”, Molecular Devices Corp.).
(§2) To this end, ligand-induced changes in the intracellular concentration of Ca^2+ in recombinant HEK293 cells, which expressed both a cannabinoid receptor (CB1 or CB2) and G-protein Galpha16, were determined. For the studies, cells were sown into 96-well microtiter plates (60 000 cells/well) and left to grow overnight. The medium was removed and the cells were incubated in buffer which contained the fluorescent dye Fluo-4. After this loading with dye, the cells were washed, test substance was added dissolved in buffer, the mixture was incubated for 20 minutes, a known cannabinoid receptor agonist as a reference agonist was added in buffer and, finally, the changes in the intracellular Ca^2+ concentration were measured in the FLIPR unit.
(§3) Results were presented as the percentage change relative to the control (0%: analogous experiment without test substance and without reference agonist, i.e. only with buffer; 100%: analogous experiment without test substance, but with reference agonist in excess), and used to calculate dose/action curves, and IC50 values were determined.
The values of the functional assay compared to the cannabinoid 1 receptor including illustrative selectivities compared to the cannabinoid 2 receptor can be taken from table 1 which follows.

hCB2R = target: T3, hCB2R (Homo sapiens, UniProt P34972); assay: In vitro functional assay with recombinant cells (FLIPR), cannabinoid 2 receptor; format: cell-based; details: recombinant HEK293 cells expressing CB2 and G-protein Galpha16; intracellular Ca2+ change against reference agonist
T3 construct: expressed in transfected cells; host or cells: HEK293
Description: as §1, §2
as §3, with “determined. […]” for “determined.”

T2 sequence (P21554 whole entry): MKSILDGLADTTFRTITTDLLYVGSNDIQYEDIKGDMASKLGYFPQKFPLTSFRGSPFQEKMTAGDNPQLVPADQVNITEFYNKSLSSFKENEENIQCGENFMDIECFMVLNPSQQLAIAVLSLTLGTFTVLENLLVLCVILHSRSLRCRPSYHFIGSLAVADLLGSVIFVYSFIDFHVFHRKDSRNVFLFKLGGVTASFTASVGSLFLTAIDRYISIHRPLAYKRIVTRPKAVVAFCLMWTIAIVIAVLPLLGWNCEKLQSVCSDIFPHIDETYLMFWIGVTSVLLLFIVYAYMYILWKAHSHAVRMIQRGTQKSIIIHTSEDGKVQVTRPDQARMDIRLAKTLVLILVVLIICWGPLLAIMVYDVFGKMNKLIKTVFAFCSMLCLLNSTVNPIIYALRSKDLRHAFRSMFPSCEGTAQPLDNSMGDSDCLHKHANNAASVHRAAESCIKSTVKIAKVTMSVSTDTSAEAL
T3 sequence (P34972 whole entry): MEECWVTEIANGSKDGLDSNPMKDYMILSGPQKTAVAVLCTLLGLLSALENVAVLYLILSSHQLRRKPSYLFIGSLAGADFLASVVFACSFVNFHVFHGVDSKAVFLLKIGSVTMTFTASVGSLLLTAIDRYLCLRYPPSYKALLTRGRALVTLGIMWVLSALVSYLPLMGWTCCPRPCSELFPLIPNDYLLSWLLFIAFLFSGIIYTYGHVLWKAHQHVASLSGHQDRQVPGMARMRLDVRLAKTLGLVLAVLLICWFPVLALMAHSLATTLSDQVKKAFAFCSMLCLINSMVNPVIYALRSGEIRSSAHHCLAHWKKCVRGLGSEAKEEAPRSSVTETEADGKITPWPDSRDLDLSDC
T1 sequence (P47746 whole entry): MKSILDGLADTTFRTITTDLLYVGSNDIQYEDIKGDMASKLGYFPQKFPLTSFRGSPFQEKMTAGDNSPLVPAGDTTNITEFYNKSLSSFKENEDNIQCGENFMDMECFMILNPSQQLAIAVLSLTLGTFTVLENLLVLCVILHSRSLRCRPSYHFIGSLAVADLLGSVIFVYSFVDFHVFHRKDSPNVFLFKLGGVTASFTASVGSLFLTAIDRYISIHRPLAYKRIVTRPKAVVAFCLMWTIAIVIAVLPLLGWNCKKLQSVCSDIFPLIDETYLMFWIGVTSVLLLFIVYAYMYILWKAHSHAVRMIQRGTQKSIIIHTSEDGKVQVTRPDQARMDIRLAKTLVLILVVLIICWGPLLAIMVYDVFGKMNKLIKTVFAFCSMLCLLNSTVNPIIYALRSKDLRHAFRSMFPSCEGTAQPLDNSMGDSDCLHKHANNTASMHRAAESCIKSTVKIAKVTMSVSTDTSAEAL

Compound: CCCCCCC(C)(C)c1ccc([C@@H]2C[C@H](O)CC[C@H]2CCCO)c(O)c1 [CP55.940]
- fall in the body temperature [1]: 5-6 °C

Compound: CC1(C)C(=O)N(c2ccc(C#N)c(C(F)(F)F)c2)C(=O)N1Cc1ccccc1Nc1ccc(CN2CCNCC2=O)cc1 [Example 1, 4-(4,4-dimethyl-2,5-dioxo-3-{2-[4-(2-oxopiperazin-1-ylmethyl)phenylamino]-benzyl}imidazolidin-1-yl)-2-trifluoromethylbenzonitrile]
- pKi (hCB1R [2]): 7.47

Compound: CC1(C)C(=O)N(c2ccc(F)c(C(F)(F)F)c2)C(=O)N1Cc1ccccc1Nc1ccc(-c2nnn[nH]2)cc1 [Example 2, 3-(4-fluoro-3-trifluoromethylphenyl)-5,5-dimethyl-1-{2-[4-(1H-tetrazol-5-yl)phenylamino]benzyl}imidazolidine-2,4-dione]
- pIC50 (hCB1R [3]): 6.69
- pKi (hCB1R [2]): 6.97
- pIC50 (hCB2R): < 5.00

Compound: CC1(C)C(=O)N(c2ccc(F)c(C(F)(F)F)c2)C(=O)N1Cc1ccc(F)cc1Nc1ccc(N2CCCC2=O)cc1 [Example 4, 1-{4-fluoro-2-[4-(2-oxopyrrolidin-1-yl)phenylamino]benzyl}-3-(4-fluoro-3-trifluoromethylphenyl)-5,5-dimethylimidazolidine-2,4-dione]
- pKi (hCB1R [2]): 6.99

Compound: CC1(C)C(=O)N(c2ccc(F)c(C(F)(F)F)c2)C(=O)N1Cc1ccc(F)cc1Nc1ccc(-n2cnc3ccccc32)cc1 [Example 5, 1-[2-(4-benzimidazol-1-ylphenylamino)-4-fluorobenzyl]-3-(4-fluoro-3-trifluoromethylphenyl)-5,5-dimethylimidazolidine-2,4-dione]
- pIC50 (hCB1R [3]): 8.22
- pKi (hCB1R [2]): 8.40

Compound: COC(=O)C1CC(=O)N(c2ccc(Nc3cc(F)ccc3CN3C(=O)N(c4ccc(F)c(C(F)(F)F)c4)C(=O)C3(C)C)cc2)C1 (centres unmarked) [Example 6, methyl 1-(4-{5-fluoro-2-[3-(4-fluoro-3-trifluoromethylphenyl)-5,5-dimethyl-2,4-dioxoimidazolidin-1-ylmethyl]phenylamino}phenyl)-5-oxopyrrolidine-3-carboxylate]
- pKi (hCB1R [2]): 7.40

Compound: CCOc1ccc(Nc2ccc(Nc3cc(F)ccc3CN3C(=O)N(c4ccc(F)c(C(F)(F)F)c4)C(=O)C3(C)C)cc2)nn1 [Example 7, 1-{2-[4-(6-ethoxypyridazin-3-ylamino)phenylamino]-4-fluorobenzyl}-3-(4-fluoro-3-trifluoromethylphenyl)-5,5-dimethyl-imidazolidine-2,4-dione]
- pIC50 (hCB1R [3]): 7.49
- pKi (hCB1R [2]): 7.74

Compound: COc1ccc(Nc2ccc(Nc3cc(F)ccc3CN3C(=O)N(c4ccc(F)c(C(F)(F)F)c4)C(=O)C3(C)C)cc2)nn1 [Example 8, {4-fluoro-2-[4-(6-methoxypyridazin-3-ylamino)phenylamino]benzyl}-3-(4-fluoro-3-trifluoro-methylphenyl)-5,5-dimethylimidazolidine-2,4-dione]
- pIC50 (hCB1R [3]): 7.62
- pKi (hCB1R [2]): 8.00

Compound: CC1(C)C(=O)N(c2ccc(F)c(C(F)(F)F)c2)C(=O)N1Cc1ccc(F)cc1Nc1ccc(Nc2ccc(Cl)nn2)cc1 [Example 10, 1-{2-[4-(6-chloropyridazin-3-ylamino)phenylamino]-4-fluorobenzyl}-3-(4-fluoro-3-trifluoromethylphenyl)-5,5-dimethyl-imidazolidine-2,4-dione]
- pIC50 (hCB1R [3]): 7.47
- pKi (hCB1R [2]): 8.15

Compound: CC1(C)C(=O)N(c2ccc(F)c(C(F)(F)F)c2)C(=O)N1Cc1ccc(F)cc1Nc1ccc(N2CCNCC2=O)cc1 [Example 13, 1-{4-fluoro-2-[4-(2-oxopiperazin-1-yl)phenylamino]benzyl}-3-(4-fluoro-3-trifluoromethylphenyl)-5,5-dimethylimidazolidine-2,4-dione]
- pIC50 (hCB1R [3]): 6.90

Compound: CC1(C)C(=O)N(c2ccc(F)c(C(F)(F)F)c2)C(=O)N1Cc1ccc(F)cc1Nc1ccc(N2CCC(O)CC2)cc1 [Example 14, 1-{4-fluoro-2-[4-(4-hydroxypiperidin-1-yl)phenylamino]benzyl}-3-(4-fluoro-3-trifluoromethylphenyl)-5,5-dimethylimidazolidine-2,4-dione]
- pIC50 (hCB1R [3]): 8.05

Compound: CC1(C)C(=O)N(c2ccc(F)c(C(F)(F)F)c2)C(=O)N1Cc1ccc(F)cc1Nc1ccc(C2NC(=O)NC2=O)cc1 (centres unmarked) [Example 15, 1-{2-[4-(2,5-dioxoimidazolidin-4-yl)phenylamino]-4-fluorobenzyl}-3-(4-fluoro-3-trifluoromethylphenyl)-5,5-dimethylimidazolidine-2,4-dione]
- pIC50 (hCB1R [3]): 7.22

Compound: CC1(C)C(=O)N(c2ccc(F)c(C(F)(F)F)c2)C(=O)N1Cc1ccc(F)cc1Nc1ccc(N2CCNC2=O)cc1 [Example 16, 1-{4-fluoro-2-[4-(2-oxoimidazolidin-1-yl)phenylamino]benzyl}-3-(4-fluoro-3-trifluoromethylphenyl)-5,5-dimethylimidazolidine-2,4-dione]
- pIC50 (hCB1R [3]): 7.64

Compound: CC1(C)C(=O)N(c2ccc(F)c(C(F)(F)F)c2)C(=O)N1Cc1ccc(F)cc1Nc1ccc(OC2CCOCC2)cc1 [Example 18, 1-{4-fluoro-2-[4-(tetrahydropyran-4-yloxy)phenylamino]benzyl}-3-(4-fluoro-3-trifluoromethylphenyl)-5,5-dimethylimidazolidine-2,4-dione]
- pIC50 (hCB1R [3]): 7.03
